Literature values in patent US12419901B2, “Prodrugs of deoxynucleosides for treatment of diseases caused by unbalanced nucleotide pools” (UCB BIOSCIENCES, INC., priority 2018, dated 2025).

System: dGK deficient patient derived fibroblasts
Details: 50 μM in cell culture medium, quiescent dGK-deficient fibroblasts

For Nc1nc2c(ncn2[C@H]2C[C@H](O)[C@@H](CO)O2)c(=O)[nH]1 [dGuo, deoxyguanosine], the “mtDNA depletion (previously demonstrated)” value is listed as “sufficient to prevent this depletion”.
